# Measurements as given in US12064427B2, “Pharmaceutical compositions comprising (S)-4-(4-(4-(((2-(2,6-dioxopiperidin-3-yl)-1-oxoisoindolin-4-yl)oxy)methyl)benzyl)piperazin-1-yl)-3-fluorobenzonitrile and methods of using the same” (Celgene Corporation, priority 2019, dated 2024).
# What was measured:
# α1 adrenergic receptor = α1 adrenergic receptor binding at 10 μM ([3H]prazosin, cerebral cortex membranes); set-up: species or system rat; settings: inhibition of control radioligand binding
# Description: (§1) α1 Adrenergic and Dopamine D2 Receptors. Methods: Binding and functional assays for al adrenergic and dopamine D2 receptors were performed by Eurofins Cerep according to their methods.
# α1 Adrenergic Receptor. Binding at 10 μM. The binding assay evaluated the affinity of test article for the non-selective al adrenergic receptor in rat cerebral cortex. Membrane homogenates of cerebral cortex were incubated in duplicate for 60 minutes at room temperature with 0.25 nM [^3H]prazosin in the absence or presence of test articles at 10 μM. After the incubation period, samples were filtered through glass fiber filters, the filters dried and then counted for radioactivity using a scintillation counter. Results are expressed as mean percent inhibition of control radioligand binding.
# dopamine D2S receptor = molecular target: T1, dopamine D2S receptor (Homo sapiens, UniProt P14416); assay: Dopamine D2S receptor binding at 10 μM (transfected HEK-293 membranes); settings: inhibition of control radioligand binding
# T1 construct: host or cells: HEK-293
# T1 sequence (P14416 1-414 isoform P14416-2): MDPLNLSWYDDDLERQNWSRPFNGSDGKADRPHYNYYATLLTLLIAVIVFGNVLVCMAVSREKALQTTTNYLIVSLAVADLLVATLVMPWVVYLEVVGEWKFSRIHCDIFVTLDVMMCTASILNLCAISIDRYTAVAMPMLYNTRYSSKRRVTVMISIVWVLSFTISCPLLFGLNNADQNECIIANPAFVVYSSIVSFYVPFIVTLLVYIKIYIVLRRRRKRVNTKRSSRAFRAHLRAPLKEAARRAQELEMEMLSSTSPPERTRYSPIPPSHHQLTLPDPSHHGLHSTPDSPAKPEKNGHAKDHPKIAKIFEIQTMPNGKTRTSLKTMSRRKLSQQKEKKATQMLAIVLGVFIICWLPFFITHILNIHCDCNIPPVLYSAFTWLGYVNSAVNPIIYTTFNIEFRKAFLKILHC
# Description: as §1
# Dopamine D2 Receptor. Binding at 10 μM. The binding assay evaluated the affinity of test articles for the dopamine D2 receptor in transfected human embryonic kidney (HEK)-293 cells. For determining the binding in the D2S receptor assay, test article was incubated with 0.3 nM [^3H] methylspiperone or 1 nM [^3H] 7-hydroxy-2-N,N-dipropylaminotetralin (7-OH-DPAT). [^3H] Methylspiperone at 0.3 nM also was used as control ligand in the D2L binding assay. Cell membrane homogenates were incubated in duplicate at room temperature for 60 minutes with ligand in the absence or presence of test articles at 10 μM. After the incubation period, samples were filtered through glass fiber filters, the filters dried and then counted for radioactivity using a scintillation counter. Results are expressed as mean percent inhibition of control radioligand binding.
# NCI-H929-1051 = assay: Cell proliferation assay (CellTitre-Glo, 120 h); settings: Homo sapiens, read-out: NCI-H929.1051 120 h IC50
# Description: (§2) All cell lines were kept in log phase, and cell density and viability were monitored by trypan blue exclusion using the Vi-cell XR cell viability analyzer (Beckman Coulter, Brea, CA).
# (§3) A 10-point dose response starting at 10 μM with a 1:3 dilution was printed in duplicate by acoustic dispense using the EDC ATS-100 platform. Alternatively, the 10-point dose response starting at 10 μM with a 1:10 dilution, or starting at 100 nM with a 1:3 dilutions were used.
# (§4) Hematological cell lines were dispensed into compound plates by a Multidrop Combi Reagent Dispenser (Thermo Scientific, Waltham, MA) at a concentration of 0.1×10^6 cells per mL in a 50 μL total volume. At 120 h, 25 μL per well of CTG was dispensed by a Multidrop Combi Reagent Dispenser and adenosine triphosphate (ATP) release by viable cells was measured as relative luminescence units after 30 minutes using the Envision platform.
# (§5) Proliferation was assessed using the CellTitre-Glo® assay.
# NCI-H929 = assay: Cell proliferation assay (CellTitre-Glo, 120 h); settings: Homo sapiens, NCI-H929, 120 h, read-out: NCI-H929 120 h IC50
# Description: as §2, §3, §4, §5
# [1] = Two-stage dissolution (precipitation risk) of 2 mg BIC; format: physicochemical; settings: based on two-stage dissolution findings
# Description: The precipitation risk of prototype BIC formulations were studied by a two-stage method (Stage 1 under sink condition and Stage 2 under non-sink condition) for high strength (2 mg).
# A two-stage dissolution study was carried out on prototype formulations, wherein the dissolution medium for Stage 1 was 0.01N HCl. […] Based on the two-stage dissolution findings the precipitation risk is considered low for Compound 1.
# OPM2-P10 = assay: Cell proliferation assay (CellTitre-Glo, 120 h); settings: Homo sapiens, read-out: OPM-2.P10 120 h IC50
# Description: as §2, §3, §4, §5
# OPM2 = assay: Cell proliferation assay (CellTitre-Glo, 120 h); settings: Homo sapiens, OPM-2, 120 h, read-out: OPM-2 120 h IC50
# Description: as §2, §3, §4, §5
# MM cell lines = assay: Cell proliferation assay (CellTitre-Glo, 120 h), four lines together; settings: Homo sapiens, read-out: antiproliferative IC50 values
# Description: as §2, §3, §4, §5
# Water activity testing = format: physicochemical
# Source text: Water activity is a measure of how tightly bound the water is within a substance. To measure water activity, a sample is placed in a sealed vessel which is allowed to reach equilibrium. The final relative humidity (RH) in the vessel is reported as a fraction called “Aw”. Pure water has an Aw of 1.00. […] HygroLab 3 Bench Top Indicator was used to determine water activity testing. Before testing the samples, the equipment is calibrated at different relative humidity levels using RH standards (0% RH, 35% RH, and 80% RH) and at different temperatures to ensure accuracy of the probes. A known amount of sample is sealed inside the sample cell by twisting the cap in downward direction. The starting temperature is recorded before beginning the test. When the change in temperature before and after the test is not more than 0.5° C. record Aw.
# [2] = Binary drug-excipient compatibility study; settings: binary mixture with Compound 1, open dish, 50° C./75% RH, 3 and 6 weeks vs 5° C. control
# Description: A binary drug-excipient compatibility study was conducted to identify suitable excipients for capsule formulation. These binary mixtures were studied in open dish and subjected to 5° C. (control) and 50° C./75% RH conditions for 3 and 6 weeks respectively. Selective samples have been tested for chemical (impurities/degradants) and racemization (loss of chiral purity).
# [3] = acidifiers evaluated; cited from earlier work
structure (smiles),measurement,setting,value
"O=C1CCC(N2Cc3c(OCc4ccc(CN5CCN(c6ccc(F)cc6F)CC5)cc4)cccc3C2=O)C(=O)N1 (racemic) [Compound A, 3-(4-((4-((4-(2,4-difluorophenyl)piperazin-1-yl)methyl)benzyl)oxy)-1-oxoisoindolin-2-yl)piperidine-2,6-dione]",Adrenergic α1 % Inh. (@10 μM),α1 adrenergic receptor,102%
"N#Cc1ccc(N2CCN(Cc3ccc(COc4cccc5c4CN([C@H]4CCC(=O)NC4=O)C5=O)cc3)CC2)c(F)c1 [Compound 1, (S)-4-(4-(4-(((2-(2,6-dioxopiperidin-3-yl)-1-oxoisoindolin-4-yl)oxy)methyl)benzyl)piperazin-1-yl)-3-fluorobenzonitrile]",Dopamine D2S % Inh. (@10 μM),dopamine D2S receptor,55/52
same,IC50,NCI-H929-1051,1 nM
same,IC50,NCI-H929,0.07 nM
same,precipitation risk,[1],low
same,IC50,OPM2-P10,4.3 nM
same,IC50,OPM2,0.07 nM
same,IC50,MM cell lines,0.07 to 4.3 nM
"N#Cc1ccc(N2CCN(Cc3ccc(COc4cccc5c4CN([C@H]4CCC(=O)NC4=O)C5=O)cc3)CC2)c(F)c1 [Form K of Compound 1, (S)-4-(4-(4-(((2-(2,6-dioxopiperidin-3-yl)-1-oxoisoindolin-4-yl)oxy)methyl)benzyl)piperazin-1-yl)-3-fluorobenzonitrile]",RH at which Form K converts to an anhydrous form,Water activity testing,< 20%
OC[C@H]1O[C@@H](O[C@H]2[C@H](O)[C@@H](O)C(O)O[C@@H]2CO)[C@H](O)[C@@H](O)[C@H]1O (stereo partly shown) [Lactose],"compatibility of excipient with the drug substance (chemical degradation, chiral purity)",[2],compatible with little decrease in chiral purity
OC[C@@H](O)[C@@H](O)[C@H](O)[C@H](O)CO [Mannitol],"compatibility of excipient with the drug substance (chemical degradation, chiral purity)",[2],"compatible, with some hydrolytic chemical degradation"
CCCCCCCCCCCCCCCCCC(=O)O [Stearic Acid],"compatibility of excipient with the drug substance (chemical degradation, chiral purity)",[2],chemically compatible
O=C(O)/C=C/C(=O)O [fumaric acid],"compatibility of excipient with the drug substance (chemical degradation, chiral purity)",[2],more compatible acidifier
"CCCCCCCCCCCCOS(=O)(=O)[O-].[Na+] [sodium lauryl sulfate (SLS), sodium lauryl sulfate]","compatibility of excipient with the drug substance (chemical degradation, chiral purity)",[2],loss of chiral purity and increase in chemical degradation chiefly by hydrolysis
O=C(O)CCC(=O)O [succinic acid],pKa,[3],4.18
same,"compatibility of excipient with the drug substance (chemical degradation, chiral purity)",[2],chemically incompatible
